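Each compound was tested at five concentrations against cells in 96-well plates for 48 hours. TGI denotes the concentration required for complete inhibition of growth.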
Tests used:
Assay in all cases: NCI anticancer screen, dose series, 48 h
OVCAR-3 ovarian = test system: OVCAR-3 ovarian
OVCAR-5 ovarian = test system: OVCAR-5 ovarian
DLD-1 colon = test system: DLD-1 colon
CAKI-1 renal = test system: CAKI-1 renal
HCT-15 colon = test system: HCT-15 colon
SF-539 CNS = test system: SF-539 CNS
OVCAR-8 ovarian = test system: OVCAR-8 ovarian
SK-MEL-28 melanoma = test system: SK-MEL-28 melanoma
EKVX NSCLC = test system: EKVX NSCLC
TK-10 renal = test system: TK-10 renal
UACC-62 melanoma = test system: UACC-62 melanoma
RXF 393 renal = test system: RXF 393 renal
SN12C renal = test system: SN12C renal
SNB-75 CNS = test system: SNB-75 CNS
KM12 colon = test system: KM12 colon
DMS 114 small cell lung = test system: DMS 114 small cell lung
CCRF-CEM leukemia = test system: CCRF-CEM leukemia
NCI-H23 lung = test system: NCI-H23 lung
HOP-92 NSCLC = test system: HOP-92 NSCLC
RPMI-8226 leukemia = test system: RPMI-8226 leukemia
SK-MEL-5 melanoma = test system: SK-MEL-5 melanoma
SW-620 colon = test system: SW-620 colon
M14 melanoma = test system: M14 melanoma
ACHN renal = test system: ACHN renal
U251 CNS = test system: U251 CNS
M19-MEL melanoma = test system: M19-MEL melanoma
KM20L2 colon = test system: KM20L2 colon
HCC-2998 colon = test system: HCC-2998 colon
IGROV1 ovarian = test system: IGROV1 ovarian
SF-295 CNS = test system: SF-295 CNS
HT29 colon = test system: HT29 colon
XF 498 CNS = test system: XF 498 CNS
786-0 renal = test system: 786-0 renal
SK-OV-3 ovarian = test system: SK-OV-3 ovarian
HCT-116 colon = test system: HCT-116 colon
NCI-H460 lung = test system: NCI-H460 lung
DMS 273 small cell lung = test system: DMS 273 small cell lung
K-562 leukemia = test system: K-562 leukemia
NCI-H522 lung = test system: NCI-H522 lung
HOP-62 NSCLC = test system: HOP-62 NSCLC
SF-268 CNS = test system: SF-268 CNS
SNB-78 CNS = test system: SNB-78 CNS
A498 renal = test system: A498 renal
MOLT-4 leukemia = test system: MOLT-4 leukemia
SNB-19 CNS = test system: SNB-19 CNS
A549 NSCLC = test system: A549 NSCLC
UACC-257 melanoma = test system: UACC-257 melanoma
SR leukemia = test system: SR leukemia
HOP-18 NSCLC = test system: HOP-18 NSCLC
OVCAR-4 ovarian = test system: OVCAR-4 ovarian
RXF-631 renal = test system: RXF-631 renal
UO-31 renal = test system: UO-31 renal
SK-MEL-2 melanoma = test system: SK-MEL-2 melanoma
LOX IMVI melanoma = test system: LOX IMVI melanoma
HL-60(TB) leukemia = test system: HL-60(TB) leukemia
COLO 205 colon = test system: COLO 205 colon
MALME-3M melanoma = test system: MALME-3M melanoma
NCI-H226 lung = test system: NCI-H226 lung
LXFL 529 NSCLC = test system: LXFL 529 NSCLC

O=C(CN1CCN(c2cccc(Cl)c2)CC1)N1CCc2c([nH]c3ccccc23)C1c1cccnc1 (stereo not given)
TGI (OVCAR-3 ovarian): 42.2 µM
TGI (OVCAR-5 ovarian): 45.2 µM
TGI (DLD-1 colon): > 100 µM
TGI (CAKI-1 renal): 54.7 µM
TGI (HCT-15 colon): > 100 µM
TGI (SF-539 CNS): 42.3 µM
TGI (OVCAR-8 ovarian): > 100 µM
TGI (SK-MEL-28 melanoma): > 100 µM
TGI (EKVX NSCLC): 94.1 µM
TGI (TK-10 renal): > 100 µM
TGI (UACC-62 melanoma): 39.3 µM
TGI (RXF 393 renal): 14.8 µM
TGI (SN12C renal): > 100 µM
TGI (SNB-75 CNS): 26.6 µM
TGI (KM12 colon): 20.2 µM
TGI (DMS 114 small cell lung): 39.4 µM
TGI (CCRF-CEM leukemia): 17.8 µM
TGI (NCI-H23 lung): 50.3 µM
TGI (HOP-92 NSCLC): 42 µM
TGI (RPMI-8226 leukemia): 5.26 µM
TGI (SK-MEL-5 melanoma): 32.6 µM
TGI (SW-620 colon): 52 µM
TGI (M14 melanoma): 19.4 µM
TGI (ACHN renal): > 100 µM
TGI (U251 CNS): 48.8 µM
TGI (M19-MEL melanoma): 68.6 µM
TGI (KM20L2 colon): 11.7 µM
TGI (HCC-2998 colon): 21.6 µM
TGI (IGROV1 ovarian): > 100 µM
TGI (SF-295 CNS): 50.8 µM
TGI (HT29 colon): 15.9 µM
TGI (XF 498 CNS): 35.9 µM
TGI (786-0 renal): 44.3 µM
TGI (SK-OV-3 ovarian): > 100 µM
TGI (HCT-116 colon): 17 µM
TGI (NCI-H460 lung): 33.1 µM
TGI (DMS 273 small cell lung): 84.5 µM
TGI (K-562 leukemia): 17.8 µM
TGI (NCI-H522 lung): 48.6 µM
TGI (HOP-62 NSCLC): 63.9 µM
TGI (SF-268 CNS): > 100 µM
TGI (SNB-78 CNS): > 100 µM
TGI (A498 renal): 67.9 µM
TGI (MOLT-4 leukemia): 6.94 µM
TGI (SNB-19 CNS): > 100 µM
TGI (A549 NSCLC): > 100 µM
TGI (UACC-257 melanoma): 35.4 µM
TGI (SR leukemia): 7.19 µM
TGI (HOP-18 NSCLC): 97.8 µM
TGI (OVCAR-4 ovarian): 75.7 µM
TGI (RXF-631 renal): 40.4 µM
TGI (UO-31 renal): 57.7 µM

CC1OC(n2cc(Cl)c(=O)[nH]c2=O)C=C(OC(=O)c2ccccc2)C1=O (stereo not given)
TGI (OVCAR-3 ovarian): > 100 µM
TGI (DLD-1 colon): > 100 µM
TGI (CAKI-1 renal): > 100 µM
TGI (HCT-15 colon): > 100 µM
TGI (SF-539 CNS): > 100 µM
TGI (OVCAR-8 ovarian): > 100 µM
TGI (SK-MEL-28 melanoma): > 100 µM
TGI (EKVX NSCLC): > 100 µM
TGI (SK-MEL-2 melanoma): > 100 µM
TGI (TK-10 renal): > 100 µM
TGI (LOX IMVI melanoma): > 100 µM
TGI (UACC-62 melanoma): > 100 µM
TGI (RXF 393 renal): > 100 µM
TGI (SN12C renal): > 100 µM
TGI (SNB-75 CNS): > 100 µM
TGI (DMS 114 small cell lung): > 100 µM
TGI (CCRF-CEM leukemia): > 100 µM
TGI (HL-60(TB) leukemia): > 100 µM
TGI (NCI-H23 lung): > 100 µM
TGI (HOP-92 NSCLC): > 100 µM
TGI (COLO 205 colon): > 100 µM
TGI (RPMI-8226 leukemia): > 100 µM
TGI (SK-MEL-5 melanoma): > 100 µM
TGI (SW-620 colon): > 100 µM
TGI (M14 melanoma): > 100 µM
TGI (ACHN renal): > 100 µM
TGI (U251 CNS): > 100 µM
TGI (M19-MEL melanoma): > 100 µM
TGI (MALME-3M melanoma): > 100 µM
TGI (KM20L2 colon): > 100 µM
TGI (IGROV1 ovarian): > 100 µM
TGI (SF-295 CNS): > 100 µM
TGI (HT29 colon): > 100 µM
TGI (XF 498 CNS): > 100 µM
TGI (786-0 renal): > 100 µM
TGI (SK-OV-3 ovarian): > 100 µM
TGI (NCI-H460 lung): > 100 µM
TGI (DMS 273 small cell lung): > 100 µM
TGI (K-562 leukemia): > 100 µM
TGI (HOP-62 NSCLC): > 100 µM
TGI (SNB-78 CNS): > 100 µM
TGI (MOLT-4 leukemia): > 100 µM
TGI (SNB-19 CNS): > 100 µM
TGI (A549 NSCLC): > 100 µM
TGI (UACC-257 melanoma): > 100 µM
TGI (HOP-18 NSCLC): > 100 µM
TGI (OVCAR-4 ovarian): > 100 µM
TGI (RXF-631 renal): > 100 µM
TGI (UO-31 renal): > 100 µM

COc1ccc(-c2nc(Sc3c([N+](=O)[O-])ncn3C)n[nH]2)cc1
TGI (OVCAR-5 ovarian): > 100 µM
TGI (DLD-1 colon): 6.82 µM
TGI (CAKI-1 renal): > 100 µM
TGI (SF-539 CNS): 4.18 µM
TGI (OVCAR-8 ovarian): 5.4 µM
TGI (SK-MEL-28 melanoma): 22 µM
TGI (EKVX NSCLC): > 100 µM
TGI (SK-MEL-2 melanoma): 4.95 µM
TGI (TK-10 renal): 44.2 µM
TGI (LOX IMVI melanoma): 7.92 µM
TGI (UACC-62 melanoma): 11.1 µM
TGI (RXF 393 renal): 4.28 µM
TGI (SN12C renal): 8.23 µM
TGI (NCI-H226 lung): 38.1 µM
TGI (SNB-75 CNS): > 100 µM
TGI (KM12 colon): 4.31 µM
TGI (DMS 114 small cell lung): 6.64 µM
TGI (CCRF-CEM leukemia): 40.2 µM
TGI (NCI-H23 lung): 3.97 µM
TGI (HOP-92 NSCLC): 8.88 µM
TGI (COLO 205 colon): 3.28 µM
TGI (RPMI-8226 leukemia): 23.9 µM
TGI (SK-MEL-5 melanoma): 6.83 µM
TGI (SW-620 colon): > 100 µM
TGI (M14 melanoma): 4.96 µM
TGI (ACHN renal): 23.1 µM
TGI (U251 CNS): 5.55 µM
TGI (M19-MEL melanoma): > 100 µM
TGI (MALME-3M melanoma): 9.9 µM
TGI (HCC-2998 colon): 30.2 µM
TGI (IGROV1 ovarian): 77.3 µM
TGI (SF-295 CNS): 16.5 µM
TGI (XF 498 CNS): 9.78 µM
TGI (786-0 renal): 13.8 µM
TGI (SK-OV-3 ovarian): > 100 µM
TGI (LXFL 529 NSCLC): 13 µM
TGI (HCT-116 colon): > 100 µM
TGI (NCI-H460 lung): 69.1 µM
TGI (DMS 273 small cell lung): 4.77 µM
TGI (K-562 leukemia): > 100 µM
TGI (NCI-H522 lung): 5.75 µM
TGI (HOP-62 NSCLC): 89.9 µM
TGI (SF-268 CNS): 21.1 µM
TGI (SNB-78 CNS): > 100 µM
TGI (A498 renal): 37.6 µM
TGI (MOLT-4 leukemia): 9.56 µM
TGI (SNB-19 CNS): 39.3 µM
TGI (A549 NSCLC): > 100 µM
TGI (UACC-257 melanoma): 39.2 µM
TGI (SR leukemia): 37.3 µM
TGI (HOP-18 NSCLC): 5.53 µM
TGI (OVCAR-4 ovarian): 81.2 µM
TGI (RXF-631 renal): 22.2 µM
TGI (UO-31 renal): > 100 µM

Source: PubChem BioAssay (NCI)
